Data on 1 molecule can be found in US10695341B2, “Compositions and methods for treating endometriosis” (UNIVERSITY OF SOUTH FLORIDA, priority 2014, dated 2020).

SMILES strings stand for the structures.

For one series, the system named is LC3B-II. Nature of the series: Western blot for LC3B, T-HESC cells, HCQ. To be noted: 25 μM HCQ, 18 hours. In kind it is cell-based, human. On the technique in general: A western blot detects proteins with antibodies after separation by electrophoresis.
In the next series the test system is endometriotic lesions. Nature of the series: Induced murine endometriosis model, lesion count (Example 6). Format: in vivo, C57BL/6 mice. Here is the method: To determine whether treatment with HCQ alters the formation of endometriotic lesions, an induced model of murine endometriosis in which mice receive injections of uterine horn fragments that develop into lesions within 2 weeks was utilized. Receipient (endometriosis-induced) mice were treated with 60 mg/kg HCQ21 or phosphate-buffered saline (PBS, FIG. 12). This treatment was repeated once every seven days post-induction. Mice that were neither injected with uterine horn fragments nor treated were used as controls (FIG. 39). All of the mice were euthanized at the same time (14 days after endometriosis induction for both the PBS and HCQ treatment groups). Ectopic lesions that developed in the recipient mice (white arrow, FIGS. 40A-40B) were counted, measured, and collected for RNA and protein analysis, as well as for histological staining. […] The majority (87.5%) of endometriosis-induced mice developed lesions. At the time of collection, we noted that the endometriotic lesions varied in size, color, and location across the treatment groups.
Five-week-old C57BL/6 female mice were purchased from Jackson laboratories. All animals were maintained under standard 12 h photoperiod; food and water were available ad libitum throughout the study. […] Lesions were measured using a caliper. Volume of the lesions was calculated according to the formula: 4/3πr^2R.

Series [1] concerns uterine horns and ovaries. Nature of the series: Murine tissue microarray H&E and immunohistochemistry (uterine horns, ovaries). In kind it is in vivo, mouse. The text has this:
To determine whether HCQ treatment alters the histopathology (tissue organization) of the recipient's uterine horns and other tissues, a murine tissue microarray (TMA) comprised of 113 cores and performed H&E as well as immunohistochemical staining was developed. The TMA contained uterine horns and ovaries from 10 PBS- and 10 HCQ-treated mice, as well as a mammary gland, a kidney, a lymph node and a small intestine from a PBS-treated mouse for use as antibody controls. […] Estrogen receptor α (ERα) was primarily localized to the epithelial cell layer of the endometrial glands, while progesterone receptor (PR) appeared to be evenly distributed between the stromal and epithelial cell compartments. However, the PR staining was comparatively much weaker to that for ERα. […] LC3B expression appeared more intense in HCQ-treated mice relative to PBS-treated mice in both the stromal and epithelial compartments (FIGS. 19A-19X). […] Collected samples were immediately preserved in 10% neutral buffered formalin at the animal facility. Samples were embedded in paraffin, sectioned, and transferred to slides for hematoxylin/eosin and immunohistochemical staining. A pathologist reviewed each case and delimited the region of interest, containing epithelial and stromal cells, for each specimen. A mouse tissue microarray was prepared at the Tissue Core Facility at the Moffitt Cancer Center. The mouse tissue microarray contained a total of 113 core samples, which included 10 uterine horns and 10 ovaries from both PBS and HCQ treated mice. As control specimens for the utilized antibodies, the TMA included mouse mammary tissue, […], small intestine, and lymph nodes from a PBS treated mouse. Lesions were analyzed from independent blocks. Slides were stained using a Leica Bond RX automated system (Leica Biosytems, Buffalo Grove, Ill.) following manufacturers instructions with proprietary reagents. Slides were deparaffinized on an automated system with Dewax Solution (Leica Biosystems). The antigen retrieval method used for Progesterone Receptor (PR) was enzymatic with Enzyme Solution 1 at 15 min (Leica), for vimentin and Estrogen Receptor (ER) was heat induced with Epitope Retrieval Solution 1 at 20 min (Leica), for cytokeratin 8 (CK-8) was heat induced with Epitope Retrieval Solution at 10 min (Leica), and for LC3B was heat-induced with Epitope Retrieval Solution 1 at 10 min (Leica Biosystems). All antibodies were diluted in Dako antibody diluent (Carpenteria, Calif.): PR (# ab131486, 1:500, Abcam, Cambridge, Mass.), vimentin (#5741 (D21H3), 1:100, Cell Signaling, Danvers, Mass.), ERα (# ab32063 ([…]), 1:200, Abcam, Cambridge, Mass.), Cytokeratin-8 (# ab53280 (E[…]), 1:200, Abcam, Cambridge, Mass.), and LC3B (# ab51520, 1:1,500, Abcam, Cambridge, Mass.) and incubated for 30 min. The Leica Bond Polymer Refine Detection System was used with a polymer incubation for 8 min. Hematoxylin was used as counterstain and slides were dehydrated and covered with a coverslip, following standard histological protocol.

For `CCN(CCO)CCCC(C)Nc1ccnc2cc(Cl)ccc12` (centres unmarked) [HCQ, hydroxychloroquine], in the series with LC3B-II, the “LC3B-II protein in T-HESC cells” value is given as “increase”. The “number of lesions that developed vs PBS” value in the series with endometriotic lesions (60 mg/kg HCQ i.p., repeated after seven days, 14 days after induction, p=0.0007) is “significant reduction”. In addition, the “total number of lesions in treatment group” value in the series on endometriotic lesions (60 mg/kg HCQ, n=25 mice (PBS: 46 lesions in n=24)) came to 18. The “luminal epithelium of the uterine horn endometrium (H&E, TMA)” value in series [1] (HCQ-treated mice) is “irregular pattern”. Further, the “intensity or localization of IHC markers in ovaries” value in series [1] (HCQ-treated relative to PBS-treated mice) is on record as “no marked differences”. In series [1] (PBS vs HCQ-treated mice), the “ERα and PR staining pattern or intensity in uterine horns” value was “no differences”. The “vimentin and CK8 localization in uterine horns” value in series [1] (stromal and epithelial compartments, independently of HCQ treatment) was “appropriately localized”. In addition, in series [1] (stromal and epithelial compartments, relative to PBS), the “LC3B expression in uterine horns (IHC)” value is “more intense”.
